Laboratory results as given in patent US7902182B2, “HIV integrase inhibitors” (priority 2005, dated 2011).

Each molecule was assayed against T1, HIV-integrase (Human immunodeficiency virus type 1 group M subtype B, UniProt P12497) (assay: HIV-Integrase Inhibition Activity (SPA bead strand transfer assay)). Conditions: recombinant integrase, biotin labeled substrate DNA on SPA beads, P33 labeled target DNA; read-out: Activity (IC50 against HIV-integrase).
T1 construct: Recombinant integrase (0.26 ng) was incubated with the beads
Format: biochemical
Method: HIV-Integrase InhibitionActivity. To evaluate in-vitro activity against HIV-integrase, 5 pmole of biotin labeled substrate DNA was bound to 100 μg of Streptavidin coated PVT SPA beads (Amersham Pharmacia Biotech). Recombinant integrase (0.26 ng) was incubated with the beads for 90 min at 37° C. Unbound enzyme was removed by washing the complex followed by addition of inhibitors and 0.1 fmol of P33 labeled target DNA. The reaction was stopped by adding EDTA to a final concentration of 10 mM. Samples were counted in TopCountNXT (Packard) and the CPM was used as a measure of integration. The reaction condition was as described in A. Engelman and R. Craigie, J. Virol. 69, 5908-5911 (1995). The sequences of substrate and target DNA were described in Nucleic Acid Research 22, 1121-1122 (1994).
Activity equal to A refers to a compound having IC50=0.002 to 0.10 μM while B and C denote compounds having IC50=0.1 to 1.0 μM and IC50≧1.0 μM respectively.

How did the IC50 turn out when `CC1(C)OCCn2c1nc(C(=O)NCc1ccc(F)cc1S(=O)(=O)N1CCC(O)CC1)c(O)c2=O` [Example 25] was run?
The IC50 was 2 to 100 nM.

`O=C(NCc1ccc(F)cc1S(=O)(=O)N1CCN(C(=O)N2CCOCC2)CC1)c1nc2n(c(=O)c1O)CCOC21CCOCC1` [Example 9] was tested. Which IC50 did it give?
The IC50 was 2 to 100 nM.

For `CC(=O)N1CCN(S(=O)(=O)c2cc(F)ccc2CNC(=O)c2nc3n(c(=O)c2O)CCOC3(C)C)CC1` [Example 20], which IC50 is on record?
The IC50 was 2 to 100 nM.

How did the IC50 turn out when `O=C(NCc1ccc(F)cc1S(=O)(=O)N1CCOCC1)c1nc2n(c(=O)c1O)CCOC21CCOCC1` [Example 11] was run?
Its IC50 is 2 to 100 nM.

How did the IC50 turn out when `O=C(NCc1ccc(F)cc1S(=O)(=O)N1CCNCC1)c1nc2n(c(=O)c1O)CCOC21CCOCC1` [Example 1] was run?
Its IC50 is 2 to 100 nM.

`CC1(C)OCCn2c1nc(C(=O)NCc1ccc(F)cc1S(=O)(=O)N1CCOCC1)c(O)c2=O` [Example 27] was tested. Which IC50 did it give?
The IC50 was 2 to 100 nM.

Which IC50 does the source give for `COC(=O)N1CCN(S(=O)(=O)c2cc(F)ccc2CNC(=O)c2nc3n(c(=O)c2O)CCOC3(C)C)CC1` [Example 18] here?
Its IC50 is 2 to 100 nM.

How did the IC50 turn out when `CN1CCN(S(=O)(=O)c2cc(F)ccc2CNC(=O)c2nc3n(c(=O)c2O)CCOC3(C)C)CC1` [Example 15] was run?
Its IC50 is 2 to 100 nM.

Which IC50 does the source give for `CC1(C)OCCn2c1nc(C(=O)NCc1ccc(F)cc1S(=O)(=O)N1CCCC1)c(O)c2=O` [Example 33] here?
Its IC50 is 2 to 100 nM.

For `CC1(C)OCCn2c1nc(C(=O)NCc1ccc(F)cc1S(=O)(=O)N1CCC(O)C1)c(O)c2=O` (stereo not shown) [Example 29], which IC50 is on record?
The IC50 was 2 to 100 nM.

With `CCN1CCN(S(=O)(=O)c2cc(F)ccc2CNC(=O)c2nc3n(c(=O)c2O)CCOC32CCOCC2)CC1` [Example 5] as the molecule, how does the IC50 read?
Its IC50 is 2 to 100 nM.

`CN1CCN(S(=O)(=O)c2cc(F)ccc2CNC(=O)c2nc3n(c(=O)c2O)CCOC32CCCC2)CC1` [Example 23] was tested. Which IC50 did it give?
Its IC50 is 2 to 100 nM.

`CN(C)[C@@H]1COC[C@H]1N1CCN(S(=O)(=O)c2cc(F)ccc2CNC(=O)c2nc3n(c(=O)c2O)CCOC3(C)C)CC1` [Example 40] was tested. Which IC50 did it give?
Its IC50 is 2 to 100 nM.

With `CN(C)S(=O)(=O)N1CCN(S(=O)(=O)c2cc(F)ccc2CNC(=O)c2nc3n(c(=O)c2O)CCOC3(C)C)CC1` [Example 21] as the molecule, how does the IC50 read?
The IC50 was 2 to 100 nM.

For `CC1(C)OCCn2c1nc(C(=O)NCc1ccc(F)cc1S(=O)(=O)N1CCOC(CN3CCCC3)C1)c(O)c2=O` (stereo not shown) [Example 39], which IC50 is on record?
Its IC50 is 2 to 100 nM.

`CN(C)S(=O)(=O)N1CCN(S(=O)(=O)c2cc(F)ccc2CNC(=O)c2nc3n(c(=O)c2O)CCOC32CCOCC2)CC1` [Example 8] was tested. Which IC50 did it give?
The IC50 was 2 to 100 nM.

With `C[C@@H]1CN(S(=O)(=O)c2cc(F)ccc2CNC(=O)c2nc3n(c(=O)c2O)CCOC3(C)C)CCN1C` [Example 42] as the molecule, how does the IC50 read?
The IC50 was 2 to 100 nM.

How did the IC50 turn out when `C[C@@H]1CN(S(=O)(=O)c2cc(F)ccc2CNC(=O)c2nc3n(c(=O)c2O)CCOC3(C)C)CCN1` [Example 41] was run?
Its IC50 is 2 to 100 nM.

How did the IC50 turn out when `CN(C)C(=O)N1CCN(S(=O)(=O)c2cc(F)ccc2CNC(=O)c2nc3n(c(=O)c2O)CCOC3(C)C)CC1` [Example 19] was run?
The IC50 was 2 to 100 nM.

`CC1(C)OCCn2c1nc(C(=O)NCc1ccc(F)cc1S(=O)(=O)N1CCN(S(C)(=O)=O)CC1)c(O)c2=O` [Example 16] was tested. Which IC50 did it give?
Its IC50 is 2 to 100 nM.

With `CN(C)C(=O)N1CCN(S(=O)(=O)c2cc(F)ccc2CNC(=O)c2nc3n(c(=O)c2O)CCOC32CCOCC2)CC1` [Example 7] as the molecule, how does the IC50 read?
The IC50 was 2 to 100 nM.

How did the IC50 turn out when `O=C(NCc1ccc(F)cc1S(=O)(=O)N1CCOCC1)c1nc2n(c(=O)c1O)CCOC21CCCC1` [Example 12] was run?
Its IC50 is 2 to 100 nM.

Which IC50 does the source give for `O=C(NCc1ccc(F)cc1S(=O)(=O)N1CCOCC1)c1nc2n(c(=O)c1O)CCCC21CCCC1` [Example 13] here?
Its IC50 is 2 to 100 nM.

How did the IC50 turn out when `CS[C@@H]1COC[C@H]1N1CCN(S(=O)(=O)c2cc(F)ccc2CNC(=O)c2nc3n(c(=O)c2O)CCOC3(C)C)CC1` [Example 38] was run?
The IC50 was 2 to 100 nM.

How did the IC50 turn out when `CC1(C)OCCn2c1nc(C(=O)NCc1ccc(F)cc1S(=O)(=O)N1CCC3(CCNC3=O)CC1)c(O)c2=O` [Example 32] was run?
The IC50 was 2 to 100 nM.

`CC1(C)OCCn2c1nc(C(=O)NCc1ccc(F)cc1S(=O)(=O)N1CCC3(CC1)OCCO3)c(O)c2=O` [Example 31] was tested. Which IC50 did it give?
The IC50 was 2 to 100 nM.

How did the IC50 turn out when `COC(=O)N1CCN(S(=O)(=O)c2cc(F)ccc2CNC(=O)c2nc3n(c(=O)c2O)CCOC32CCOCC2)CC1` [Example 3] was run?
Its IC50 is 2 to 100 nM.

How did the IC50 turn out when `CC(=O)N1CCN(S(=O)(=O)c2cc(F)ccc2CNC(=O)c2nc3n(c(=O)c2O)CCOC32CCOCC2)CC1` [Example 10] was run?
The IC50 was 2 to 100 nM.

`CN1CCN(S(=O)(=O)c2cc(F)ccc2CNC(=O)c2nc3n(c(=O)c2O)CCOC32CCOCC2)CC1` [Example 2] was tested. Which IC50 did it give?
The IC50 was 2 to 100 nM.

With `CC1(C)OCCn2c1nc(C(=O)NCc1ccc(F)cc1S(=O)(=O)N1CCC1)c(O)c2=O` [Example 26] as the molecule, how does the IC50 read?
Its IC50 is 2 to 100 nM.

`O=C(NCc1ccc(F)cc1S(=O)(=O)N1CCNCC1)c1nc2n(c(=O)c1O)CCOC21CCCC1` [Example 22] was tested. Which IC50 did it give?
The IC50 was 2 to 100 nM.

Which IC50 does the source give for `C[C@@H]1CN(S(=O)(=O)c2cc(F)ccc2CNC(=O)c2nc3n(c(=O)c2O)CCOC3(C)C)CCN1C(=O)OC(C)(C)C` [Example 37] here?
Its IC50 is 2 to 100 nM.

With `CC(=O)N(C)C1CCN(S(=O)(=O)c2cc(F)ccc2CNC(=O)c2nc3n(c(=O)c2O)CCOC3(C)C)C1` (stereo not shown) [Example 34] as the molecule, how does the IC50 read?
Its IC50 is 2 to 100 nM.

Which IC50 does the source give for `CC1(C)OCCn2c1nc(C(=O)NCc1ccc(F)cc1S(=O)(=O)N1CCCCCC1)c(O)c2=O` [Example 28] here?
Its IC50 is 2 to 100 nM.

Which IC50 does the source give for `CC1CN(S(=O)(=O)c2cc(F)ccc2CNC(=O)c2nc3n(c(=O)c2O)CCOC3(C)C)CC(C)N1C` (stereo not shown) [Example 36] here?
The IC50 was 2 to 100 nM.

`CC1(C)OCCn2c1nc(C(=O)NCc1ccc(F)cc1S(=O)(=O)N1CCNCC1)c(O)c2=O` [Example 14] was tested. Which IC50 did it give?
Its IC50 is 2 to 100 nM.

How did the IC50 turn out when `CN1CCN(S(=O)(=O)c2cc(F)ccc2CNC(=O)c2nc3n(c(=O)c2O)CCOC32CCC2)CC1` [Example 24] was run?
The IC50 was 2 to 100 nM.

Which IC50 does the source give for `CC1CN(S(=O)(=O)c2cc(F)ccc2CNC(=O)c2nc3n(c(=O)c2O)CCOC3(C)C)CC(C)N1` (stereo not shown) [Example 35] here?
Its IC50 is 2 to 100 nM.

How did the IC50 turn out when `CC1(C)OCCn2c1nc(C(=O)NCc1ccc(F)cc1S(=O)(=O)N1CCN(C(=O)N3CCOCC3)CC1)c(O)c2=O` [Example 17] was run?
Its IC50 is 2 to 100 nM.

With `CC1(C)OCCn2c1nc(C(=O)NCc1ccc(F)cc1S(=O)(=O)N1CCCCC1)c(O)c2=O` [Example 30] as the molecule, how does the IC50 read?
The IC50 was 2 to 100 nM.
